In patent US9908895B2, “Tricyclic fused thiophene derivatives as JAK inhibitors” (Incyte Corporation, priority 2012, dated 2018):

test system: human JAK1; test: In vitro JAK kinase assay (HTRF), JAK1; assay type: biochemical; details: ratio of JAK2 IC50 to JAK1 IC50 at 1 mM ATP
Method: Compounds herein were tested for inhibitory activity of JAK targets according to the following in vitro assay described in Park et al., Analytical Biochemistry 1999, 269, 94-104. The catalytic domains of human JAK1 (a.a. 837-1142), JAK2 (a.a. 828-1132) and JAK3 (a.a. 781-1124) were expressed using baculovirus in insect cells and purified. The catalytic activity of JAK1, JAK2 or JAK3 was assayed by measuring the phosphorylation of a biotinylated peptide. The phosphorylated peptide was detected by homogenous time resolved fluorescence (HTRF). IC50s of compounds were measured for each kinase in the 40 μL reactions that contain the enzyme, ATP and 500 nM peptide in 50 mM Tris (pH 7.8) buffer with 100 mM NaCl, 5 mM DTT, and 0.1 mg/mL (0.01%) BSA. For the 1 mM IC50 measurements, ATP concentration in the reactions was 1 mM. Reactions were carried out at room temperature for 1 hour and then stopped with 20 μL 45 mM EDTA, 300 nM SA-APC, 6 nM Eu-Py20 in assay buffer (Perkin Elmer, Boston, Mass.). Binding to the Europium labeled antibody took place for 40 minutes and HTRF signal was measured on a PHERA star plate reader (BMG, Cary, N.C.). The Example compounds were each tested in the Example A assay (see Table 1 for data for the compounds of the examples as tested by the assay of Example A at 1 mM ATP).

Compound | JAK2/JAK1
C[C@@H](O)c1nc2cnc3ccsc3c2n1[C@H]1CCN(CCCCC#N)C1 [Example 66, 5-((3S)-3-{2-[(1R)-1-Hydroxyethyl]-1H-imidazo[4,5-d]thieno[3,2-b]pyridin-1-yl}pyrrolidin-1-yl)pentanenitrile] | >10
C[C@@H](O)c1nc2cnc3ccsc3c2n1C1CCCCC1 [Example 13, (1R)-1-(1-Cyclohexyl-1H-imidazo[4,5-d]thieno[3,2-b]pyridin-2-yl)ethanol] | >10
CC(C)c1nc2cnc3ccsc3c2n1[C@H]1CC[C@H](CC#N)OC1 [Example 42, [(2R,5S)-5-(2-Isopropyl-1H-imidazo[4,5-d]thieno[3,2-b]pyridin-1-yl)tetrahydro-2H-pyran-2-yl]acetonitrile] | >10
C[C@@H](O)c1nc2cnc3ccsc3c2n1[C@H]1CC[C@H](CNC(=O)N(C)C)CC1 [Example 81, N′-[(trans-4-{2-[(1R)-1-Hydroxyethyl]-1H-imidazo[4,5-d]thieno[3,2-b]pyridin-1-yl}cyclohexyl)methyl]-N,N-dimethylurea] | >10
N#CC[C@H]1CC[C@H](n2c(C3CC3)nc3cnc4ccsc4c32)CO1 [Example 43, [(2R,5S)-5-(2-Cyclopropyl-1H-imidazo[4,5-d]thieno[3,2-b]pyridin-1-yl)tetrahydro-2H-pyran-2-yl]acetonitrile] | >10
CCc1nc2cnc3ccsc3c2n1[C@@H]1CC[C@@H](CC#N)[C@@H](O)C1 (mixture of isomers) [Example 35] | >10
C[C@@H](O)c1nc2cnc3ccsc3c2n1[C@H]1CC[C@H](CCS(C)(=O)=O)CC1 [Example 5, (1R)-1-(1-{trans-4-[2-(Methylsulfonyl)ethyl]cyclohexyl}-1H-imidazo[4,5-d]thieno[3,2-b]pyridin-2-yl)ethanol] | >10
C[C@@H](O)c1nc2cnc3ccsc3c2n1[C@H]1CC[C@H](CC#N)[C@H](N)C1 [Example 67, ((1R,2R,4S)-2-Amino-4-{2-[(1R)-1-hydroxyethyl]-1H-imidazo[4,5-d]thieno[3,2-b]pyridin-1-yl}cyclohexyl)acetonitrile] | >10
((1R,2S,4S)-2-Hydroxy-4-{2-[(1R)-1-hydroxyethyl]-1H-imidazo[4,5-d]thieno[3,2-b]pyridin-1-yl}cyclohexyl)acetonitrile trifluoacetate and ((1S,2R,4R)-2-hydroxy-4-{2-[(1R)-1-hydroxyethyl]-1H-imidazo[4,5-d]thieno[3,2-b]pyridin-1-yl}cyclohexyl)acetonitrile trifluoacetate [37 (second peak)] | >10
C[C@@H](O)c1nc2cnc3ccsc3c2n1[C@H]1CC[C@@H](CC#N)C1.O=C(O)C(F)(F)F [Example 49, ((1R,3S)-3-{2-[(1R)-1-Hydroxyethyl]-1H-imidazo[4,5-d]thieno[3,2-b]pyridin-1-yl}cyclopentyl)acetonitrile trifluoroacetate] | >10
CCC(=O)NC[C@H]1CC[C@H](n2c(CC#N)nc3cnc4ccsc4c32)CC1 [Example 89, N-({trans-4-[2-(Cyanomethyl)-1H-imidazo[4,5-d]thieno[3,2-b]pyridin-1-yl]cyclohexyl}methyl)propanamide] | >10
C[C@@H](O)c1nc2cnc3ccsc3c2n1[C@H]1CCCN(C(=O)CCC(F)(F)F)C1 [Example 52, (1R)-1-{1-[(3S)-1-(4,4,4-Trifluorobutanoyl)piperidin-3-yl]-1H-imidazo[4,5-d]thieno[3,2-b]pyridin-2-yl}ethanol] | >10
C[C@@H](O)c1nc2cnc3ccsc3c2n1[C@H]1CCCOC1 [Example 1, (1R)-1-{1-[(3S)-Tetrahydro-2H-pyran-3-yl]-1H-imidazo[4,5-d]thieno[3,2-b]pyridin-2-yl}ethanol] | >3
CCOC(=O)NC[C@H]1CC[C@H](n2c(CC#N)nc3cnc4ccsc4c32)CC1 [Example 87, Ethyl({trans-4-[2-(cyanomethyl)-1H-imidazo[4,5-d]thieno[3,2-b]pyridin-1-yl]cyclohexyl}methyl)carbamate] | >10
((1R,2S,4S)-2-Hydroxy-4-{2-[(1R)-1-hydroxyethyl]-1H-imidazo[4,5-d]thieno[3,2-b]pyridin-1-yl}cyclohexyl)acetonitrile trifluoacetate and ((1S,2R,4R)-2-hydroxy-4-{2-[(1R)-1-hydroxyethyl]-1H-imidazo[4,5-d]thieno[3,2-b]pyridin-1-yl}cyclohexyl)acetonitrile trifluoacetate [37 (first peak)] | >10
N#CC[C@H]1CC[C@H](n2c(CO)nc3cnc4ccsc4c32)CO1 [Example 91, {(2R,5S)-5-[2-(Hydroxymethyl)-1H-imidazo[4,5-d]thieno[3,2-b]pyridin-1-yl]tetrahydro-2H-pyran-2-yl}acetonitrile] | >10
C[C@@H](O)c1nc2cnc3ccsc3c2n1[C@H]1CC[C@H](O)CC1 [Example 3, trans-4-{2-[(1R)-1-Hydroxyethyl]-1H-imidazo[4,5-d]thieno[3,2-b]pyridin-1-yl}cyclohexanol] | >10

Compound | JAK2/JAK1
Cc1nc2cnc3ccsc3c2n1[C@H]1CC[C@H](CC#N)CC1 [Example 48, [trans-4-(2-Methyl-1H-imidazo[4,5-d]thieno[3,2-b]pyridin-1-yl)cyclohexyl]acetonitrile] | >7
C[C@@H](O)c1nc2cnc3ccsc3c2n1C1CCC(O)(CC#N)CC1 (single isomer, unassigned) [24 (first peak)] | >10
N#CCC1CCC(CO)(n2cnc3cnc4ccsc4c32)CC1 (single isomer, unassigned) [72 (second peak), [4-(Hydroxymethyl)-4-(1H-imidazo[4,5-d]thieno[3,2-b]pyridin-1-yl)cyclohexyl]acetonitrile] | >5
C[C@@H](O)c1nc2cnc3ccsc3c2n1[C@H]1CCCN(C(=O)CCc2ccccc2)C1 [Example 57] | >10
C[C@@H](O)c1nc2cnc3ccsc3c2n1C1CCN(CCCC(F)(F)F)CC1 [Example 60, (1R)-1-{1-[1-(4,4,4-Trifluorobutyl)piperidin-4-yl]-1H-imidazo[4,5-d]thieno[3,2-b]pyridin-2-yl}ethanol] | >10
C[C@@H](O)c1nc2cnc3ccsc3c2n1C1CCC(NCCC#N)CC1 (single isomer, unassigned) [30 (first peak)] | >2
C[C@@H](O)c1nc2cnc3ccsc3c2n1[C@H]1CCN(C(=O)CC#N)C1 [Example 63, 3-((3S)-3-{2-[(1R)-1-Hydroxyethyl]-1H-imidazo[4,5-d]thieno[3,2-b]pyridin-1-yl}pyrrolidin-1-yl)-3-oxopropanenitrile] | >6
C[C@@H](O)c1nc2cnc3ccsc3c2n1[C@H]1CC[C@H](CC#N)CC1 [Example 2, (trans-4-{2-[(1R)-1-Hydroxyethyl]-1H-imidazo[4,5-d]thieno[3,2-b]pyridin-1-yl}cyclohexyl)acetonitrile] | >10
CC(F)c1nc2cnc3ccsc3c2n1[C@H]1CC[C@H](CC#N)OC1 (stereo partly drawn) [Example 71, {(2R,5S)-5-[2-(1-Fluoroethyl)-1H-imidazo[4,5-d]thieno[3,2-b]pyridin-1-yl]tetrahydro-2H-pyran-2-yl}acetonitrile] | >10
C[C@@H](O)c1nc2cnc3ccsc3c2n1[C@H]1CC[C@H](CNC(=O)OC2CCOC2)CC1 (stereo partly drawn) [Example 85, Tetrahydrofuran-3-yl [(trans-4-{2-[(1R)-1-hydroxyethyl]-1H-imidazo[4,5-d]thieno[3,2-b]pyridin-1-yl}cyclohexyl)methyl]carbamate] | >10
C[C@@H](O)c1nc2cnc3ccsc3c2n1[C@H]1CC[C@H](CF)CC1 [Example 12, (1R)-1-{1-[trans-4-(Fluoromethyl)cyclohexyl]-1H-imidazo[4,5-d]thieno[3,2-b]pyridin-2-yl}ethanol] | >10
C[C@@H](O)c1nc2cnc3ccsc3c2n1C1CCCC(CCC#N)C1 (stereo partly drawn) [Example 32, 3-(3-{2-[(1R)-1-Hydroxyethyl]-1H-imidazo[4,5-d]thieno[3,2-b]pyridin-1-yl}cyclohexyl)propanenitrile] | >10
CCOC(=O)N1CCC[C@H](n2c([C@@H](C)O)nc3cnc4ccsc4c32)C1 [Example 50, Ethyl(3S)-3-{2-[(1R)-1-hydroxyethyl]-1H-imidazo[4,5-d]thieno[3,2-b]pyridin-1-yl}piperidine-1-carboxylate] | >10
C[C@@H](O)c1nc2cnc3ccsc3c2n1[C@H]1CC[C@@H](n2cncn2)CC1 [Example 6, (1R)-1-{1-[cis-4-(1H-1,2,4-Triazol-1-yl)cyclohexyl]-1H-imidazo[4,5-d]thieno[3,2-b]pyridin-2-yl}ethanol] | >6
N#CCc1nc2cnc3ccsc3c2n1[C@H]1CC[C@H](CC#N)CC1 [Example 90, {1-[trans-4-(Cyanomethyl)cyclohexyl]-1H-imidazo[4,5-d]thieno[3,2-b]pyridin-2-yl}acetonitrile] | >10
[(1R,2S,4S)-4-(2-Ethyl-1H-imidazo[4,5-d]thieno[3,2-b]pyridin-1-yl)-2-hydroxycyclohexyl]acetonitrile and [(1S,2R,4R)-4-(2-ethyl-1H-imidazo[4,5-d]thieno[3,2-b]pyridin-1-yl)-2-hydroxycyclohexyl]acetonitrile [40 (first peak)] | >10
